Source: patent publication US9452986B2, “6-heteroaryloxy- or 6-aryloxy-quinoline-2-carboxamides and method of use” (AbbVie Inc., priority 2014, dated 2016)

These compounds were tested against recombinant human Nav1.7 (Homo sapiens (Human), UniProt Q15858) (assay: FRET-based membrane potential assay, recombinant human sodium channel Nav1.7). Conditions: HEK293 cells stably expressing recombinant human Nav1.7; veratridine + scorpion venom depolarization; read-out: FRET-Membrane Potential Nav1.7 IC50.
recombinant human Nav1.7, sequence (Q15858 whole entry): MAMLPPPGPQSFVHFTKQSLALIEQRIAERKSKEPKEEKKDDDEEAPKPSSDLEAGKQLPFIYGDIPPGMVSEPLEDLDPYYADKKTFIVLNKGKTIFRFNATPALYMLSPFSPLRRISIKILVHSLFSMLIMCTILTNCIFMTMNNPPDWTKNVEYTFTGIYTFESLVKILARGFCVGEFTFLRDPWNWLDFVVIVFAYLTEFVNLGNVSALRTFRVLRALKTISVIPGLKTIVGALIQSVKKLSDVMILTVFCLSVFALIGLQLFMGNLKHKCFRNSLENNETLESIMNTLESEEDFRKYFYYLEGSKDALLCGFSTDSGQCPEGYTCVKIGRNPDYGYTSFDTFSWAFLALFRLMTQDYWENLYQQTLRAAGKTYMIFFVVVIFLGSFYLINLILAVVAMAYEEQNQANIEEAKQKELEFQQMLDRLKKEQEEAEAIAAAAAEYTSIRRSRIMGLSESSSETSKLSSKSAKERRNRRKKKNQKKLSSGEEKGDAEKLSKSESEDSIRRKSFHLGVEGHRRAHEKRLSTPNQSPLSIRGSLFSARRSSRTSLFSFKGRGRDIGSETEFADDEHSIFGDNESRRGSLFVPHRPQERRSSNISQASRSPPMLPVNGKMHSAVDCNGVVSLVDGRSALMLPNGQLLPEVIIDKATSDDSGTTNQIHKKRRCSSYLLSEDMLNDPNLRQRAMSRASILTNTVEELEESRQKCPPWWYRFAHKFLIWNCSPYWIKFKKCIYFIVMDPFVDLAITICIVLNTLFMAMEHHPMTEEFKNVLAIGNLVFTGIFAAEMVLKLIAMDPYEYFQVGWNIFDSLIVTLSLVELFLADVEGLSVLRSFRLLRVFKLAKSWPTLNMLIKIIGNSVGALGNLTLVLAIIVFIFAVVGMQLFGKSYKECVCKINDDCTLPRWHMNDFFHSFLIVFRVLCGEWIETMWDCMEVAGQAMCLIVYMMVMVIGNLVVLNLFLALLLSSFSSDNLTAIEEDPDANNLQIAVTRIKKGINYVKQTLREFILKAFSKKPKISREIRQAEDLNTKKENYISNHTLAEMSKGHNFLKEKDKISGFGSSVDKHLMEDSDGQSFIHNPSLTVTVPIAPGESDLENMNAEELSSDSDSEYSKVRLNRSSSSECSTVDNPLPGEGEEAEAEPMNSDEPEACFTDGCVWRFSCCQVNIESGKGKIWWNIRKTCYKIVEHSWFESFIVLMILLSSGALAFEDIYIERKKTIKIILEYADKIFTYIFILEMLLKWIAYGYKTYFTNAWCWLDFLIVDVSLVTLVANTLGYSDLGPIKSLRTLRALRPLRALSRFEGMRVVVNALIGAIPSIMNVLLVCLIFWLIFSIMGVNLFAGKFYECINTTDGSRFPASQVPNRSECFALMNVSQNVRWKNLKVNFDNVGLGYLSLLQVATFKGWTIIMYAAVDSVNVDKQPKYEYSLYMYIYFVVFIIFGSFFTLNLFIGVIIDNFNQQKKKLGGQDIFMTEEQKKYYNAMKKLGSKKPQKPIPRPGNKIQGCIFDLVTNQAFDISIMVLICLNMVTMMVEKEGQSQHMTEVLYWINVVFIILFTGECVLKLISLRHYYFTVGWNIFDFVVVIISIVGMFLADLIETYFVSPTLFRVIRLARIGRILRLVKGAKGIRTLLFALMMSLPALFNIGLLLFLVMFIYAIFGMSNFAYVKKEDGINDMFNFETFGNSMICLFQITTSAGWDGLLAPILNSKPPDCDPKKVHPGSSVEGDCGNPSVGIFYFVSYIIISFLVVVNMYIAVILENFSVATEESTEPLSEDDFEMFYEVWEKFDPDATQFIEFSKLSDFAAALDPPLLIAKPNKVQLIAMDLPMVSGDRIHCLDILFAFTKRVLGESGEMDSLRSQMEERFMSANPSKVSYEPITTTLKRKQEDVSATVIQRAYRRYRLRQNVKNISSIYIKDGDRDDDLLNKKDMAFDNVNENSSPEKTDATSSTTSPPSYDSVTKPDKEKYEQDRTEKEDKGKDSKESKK
Assay type: cell-based
Procedure, shortened: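 Channel activation used veratridine at its EC80, set by a dilution curve each experiment, together with Leiurus scorpion venom, added 3 min after compound. Membrane-potential ratio signals from FLIPR Tetra in HEPES-buffered HBSS were fitted to a four-parameter Hill equation for percent inhibition and IC50.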
For `CCOC(=O)N1CCN(C(=O)c2ccc3cc(Oc4ccc(C(F)(F)F)cn4)ccc3n2)CC1` [Example 289, ethyl 4-[(6-{[5-(trifluoromethyl)pyridin-2-yl]oxy}quinolin-2-yl)carbonyl]piperazine-1-carboxylate], the IC50 was 3.91 µM. `O=C(c1ccc2cc(Oc3ccc(C(F)(F)F)cn3)ccc2n1)N1CCN2C(=O)OC[C@H]2C1` [Example 333, (8aR)-7-[(6-{[5-(trifluoromethyl)pyridin-2-yl]oxy}quinolin-2-yl)carbonyl]hexahydro[1,3]oxazolo[3,4-a]pyrazin-3-one] was tested, and the IC50 was > 20 µM. For `O=C(c1ccc2cc(Oc3ccc(C(F)(F)F)cn3)ccc2n1)N1CCC(C(F)(F)F)C1` (stereo not drawn) [Example 414, (6-{[5-(trifluoromethyl)pyridin-2-yl]oxy}quinolin-2-yl)[3-(trifluoromethyl)pyrrolidin-1-yl]methanone], the IC50 was 5.02 µM. `O=C(c1ccc2cc(Oc3ccc(C(F)(F)F)cn3)ccc2n1)N1CCC(N2C[C@@H]3C[C@H]2CO3)CC1` [Example 377, {4-[(1S,4S)-2-oxa-5-azabicyclo[2.2.1]hept-5-yl]piperidin-1-yl}(6-{[5-(trifluoromethyl)pyridin-2-yl]oxy}quinolin-2-yl)methanone] was tested, and the IC50 was 3.32 µM. `CC(C)COC(=O)N1CCN(C(=O)c2ccc3cc(Oc4ccc(C(F)(F)F)cn4)ccc3n2)CC1` [Example 293, isobutyl 4-[(6-{[5-(trifluoromethyl)pyridin-2-yl]oxy}quinolin-2-yl)carbonyl]piperazine-1-carboxylate] gave an IC50 of 3.32 µM. For `CN1CCN(C(=O)c2ccc3cc(Oc4ccccn4)ccc3n2)CC1` [Example 77, (4-methylpiperazin-1-yl)[6-(pyridin-2-yloxy)quinolin-2-yl]methanone], the IC50 was > 20 µM. `O=C(NCCN1CCNC1=O)c1ccc2cc(Oc3ccc(C(F)(F)F)cn3)ccc2n1` [Example 421, N-[2-(2-oxoimidazolidin-1-yl)ethyl]-6-{[5-(trifluoromethyl)pyridin-2-yl]oxy}quinoline-2-carboxamide] gave an IC50 of 1.06 µM. In the case of `N#Cc1ccc(Oc2ccc3nc(C(=O)NC4CCN(Cc5ccccc5)C4)ccc3c2)cc1` (stereo not drawn) [Example 109, N-(1-benzylpyrrolidin-3-yl)-6-(4-cyanophenoxy)quinoline-2-carboxamide], the IC50 is reported as 0.66 µM. With `CN1CCN(C(=O)c2ccc3cc(Oc4ccc(C(F)(F)F)cn4)ccc3n2)CC1=O` [Example 450, 1-methyl-4-[(6-{[5-(trifluoromethyl)pyridin-2-yl]oxy}quinolin-2-yl)carbonyl]piperazin-2-one] the IC50 was 3.58 µM. `O=C(N[C@@H]1CS(=O)(=O)C[C@H]1O)c1ccc2cc(Oc3ccc(C(F)(F)F)nc3)ccc2n1` [Example 538, N-[(3S,4S)-4-hydroxy-1,1-dioxidotetrahydrothiophen-3-yl]-6-{[6-(trifluoromethyl)pyridin-3-yl]oxy}quinoline-2-carboxamide] gave an IC50 of 3.16 µM. For `C[C@H]1CN(C(=O)c2ccc3cc(Oc4ccc(C(F)(F)F)nc4)ccc3n2)CCN1` [Example 549, [(3S)-3-methylpiperazin-1-yl](6-{[6-(trifluoromethyl)pyridin-3-yl]oxy}quinolin-2-yl)methanone], the IC50 was 2.49 µM. With `O=C(NC1CCS(=O)(=O)C1)c1ccc2cc(Oc3ccc(C(F)(F)F)nn3)ccc2n1` (stereo not drawn) [Example 168, N-(1,1-dioxidotetrahydrothiophen-3-yl)-6-{[6-(trifluoromethyl)pyridazin-3-yl]oxy}quinoline-2-carboxamide] the IC50 was > 20 µM. `O=C(c1ccc2cc(Oc3ccc(C(F)(F)F)cn3)ccc2n1)N1C[C@@H](O)C[C@@H]1c1cc(F)ccc1F` [Example 223, [(2R,4S)-2-(2,5-difluorophenyl)-4-hydroxypyrrolidin-1-yl](6-{[5-(trifluoromethyl)pyridin-2-yl]oxy}quinolin-2-yl)methanone] was tested, and the IC50 was 2.79 µM. Work on `O=C(NC1COC1)c1ccc2cc(Oc3ccc(C(F)(F)F)cn3)ccc2n1` [Example 399, N-(oxetan-3-yl)-6-{[5-(trifluoromethyl)pyridin-2-yl]oxy}quinoline-2-carboxamide] yielded an IC50 of 0.375 µM. With `CCN(CC)C(=O)CCNC(=O)c1ccc2cc(Oc3ccc(C(F)(F)F)nc3)ccc2n1` [Example 524, N-[3-(diethylamino)-3-oxopropyl]-6-{[6-(trifluoromethyl)pyridin-3-yl]oxy}quinoline-2-carboxamide] the IC50 was 1.08 µM. For `O=C(c1ccc2cc(Oc3ccc(C(F)F)cn3)ccc2n1)N1CC[C@@H](F)C1` [Example 575, (6-{[5-(difluoromethyl)pyridin-2-yl]oxy}quinolin-2-yl) [(3R)-3-fluoropyrrolidin-1-yl]methanone], the IC50 was 12.1 µM. Work on `O=C(c1ccc2cc(Oc3ccc(C(F)(F)F)cn3)ccc2n1)N1CC2(CCOC2)C1` [Example 532, 6-oxa-2-azaspiro[3.4]oct-2-yl(6-{[5-(trifluoromethyl)pyridin-2-yl]oxy}quinolin-2-yl)methanone] yielded an IC50 of 2.77 µM. With `N#Cc1ccc(Oc2ccc3nc(C(=O)NCCc4cccs4)ccc3c2)cc1` [Example 93, 6-(4-cyanophenoxy)-N-[2-(2-thienyl)ethyl]quinoline-2-carboxamide] the IC50 was 1.55 µM. `CC(C)[C@@H]1CN(C(=O)c2ccc3cc(Oc4ccc(C(F)(F)F)cn4)ccc3n2)CCN1` [Example 263, [(3R)-3-isopropylpiperazin-1-yl](6-{[5-(trifluoromethyl)pyridin-2-yl]oxy}quinolin-2-yl)methanone] was tested, and the IC50 was 0.402 µM. Compound `CN1CC(NC(=O)c2ccc3cc(Oc4ccc(C(F)(F)F)cn4)ccc3n2)CC1=O` (stereo not drawn) [Example 448, N-(1-methyl-5-oxopyrrolidin-3-yl)-6-{[5-(trifluoromethyl)pyridin-2-yl]oxy}quinoline-2-carboxamide] has an IC50 of 0.371 µM. For `CN(C)C(=O)CN(C)C(=O)c1ccc2cc(Oc3ccc(C(F)(F)F)cn3)ccc2n1` [Example 413, N-[2-(dimethylamino)-2-oxoethyl]-N-methyl-6-{[5-(trifluoromethyl)pyridin-2-yl]oxy}quinoline-2-carboxamide], the IC50 was 12.4 µM. For `CO[C@H]1CN(C(=O)c2ccc3cc(Oc4ccc(C(F)(F)F)cn4)ccc3n2)C[C@H]1OC` [Example 324, [cis-3,4-dimethoxypyrrolidin-1-yl](6-{[5-(trifluoromethyl)pyridin-2-yl]oxy}quinolin-2-yl)methanone], the IC50 was 5.01 µM. `O=C(NCC(=O)N1C[C@H](O)C[C@H]1CO)c1ccc2cc(Oc3ccc(C(F)(F)F)cn3)ccc2n1` [Example 564, N-{2-[(2S,4R)-4-hydroxy-2-(hydroxymethyl)pyrrolidin-1-yl]-2-oxoethyl}-6-{[5-(trifluoromethyl)pyridin-2-yl]oxy}quinoline-2-carboxamide] showed an IC50 of 16.6 µM. For `NC1CCN(C(=O)c2ccc3cc(Oc4ccc(C(F)(F)F)cn4)ccc3n2)CC1` [Example 403, (4-aminopiperidin-1-yl)(6-{[5-(trifluoromethyl)pyridin-2-yl]oxy}quinolin-2-yl)methanone], the IC50 was 9.67 µM.

Same assay, conditions: read-out: FRET-Membrane Potential Nav1.7 IC50
Compound `O=C(c1ccc2cc(Oc3ccc(C(F)(F)F)cn3)ccc2n1)N1CC(N2CCNCC2)C1` [Example 557, [3-(piperazin-1-yl)azetidin-1-yl](6-{[5-(trifluoromethyl)pyridin-2-yl]oxy}quinolin-2-yl)methanone] has an IC50 of 16.7 µM. For `O=C(c1ccc2cc(Oc3ccc(C(F)(F)F)cn3)ccc2n1)N1CCC(N2CCC2)C1` (stereo not drawn) [Example 314, [3-(azetidin-1-yl)pyrrolidin-1-yl](6-{[5-(trifluoromethyl)pyridin-2-yl]oxy}quinolin-2-yl)methanone], the IC50 was 0.218 µM. With `O=C(c1ccc2cc(Oc3ncc(C(F)(F)F)cc3F)ccc2n1)N1CCNCC1` [Example 250, (6-{[3-fluoro-5-(trifluoromethyl)pyridin-2-yl]oxy}quinolin-2-yl)(piperazin-1-yl)methanone] the IC50 was 1.39 µM. `O=C(c1ccc2cc(Oc3ccc(C(F)F)cn3)ccc2n1)N1CCNC2(CC2)C1` [Example 558, 4,7-diazaspiro[2.5]oct-7-yl(6-{[5-(difluoromethyl)pyridin-2-yl]oxy}quinolin-2-yl)methanone] showed an IC50 of 4.49 µM. Compound `N#Cc1ccc(Oc2ccc3nc(C(=O)N[C@H]4CCC[C@@H]4O)ccc3c2)cc1` [Example 121, 6-(4-cyanophenoxy)-N-[(1S,2S)-2-hydroxycyclopentyl]quinoline-2-carboxamide] has an IC50 of 1.66 µM. For `N#Cc1ccc(Oc2ccc3nc(C(=O)NC4CCS(=O)(=O)C4)ccc3c2)cc1` (stereo not drawn) [Example 136, 6-(4-cyanophenoxy)-N-(1,1-dioxidotetrahydrothiophen-3-yl)quinoline-2-carboxamide], the IC50 was 0.533 µM. Compound `N#Cc1ccc(Oc2ccc3nc(C(=O)N[C@H]4CCCC[C@@H]4O)ccc3c2)cc1` [Example 120, 6-(4-cyanophenoxy)-N-[(1S,2S)-2-hydroxycyclohexyl]quinoline-2-carboxamide] has an IC50 of 2.04 µM. Work on `O=C(NCCOC(F)(F)F)c1ccc2cc(Oc3ccc(C(F)(F)F)cn3)ccc2n1` [Example 547, N-[2-(trifluoromethoxy)ethyl]-6-{[5-(trifluoromethyl)pyridin-2-yl]oxy}quinoline-2-carboxamide] yielded an IC50 of 3.29 µM. `O=C1CN(C(=O)c2ccc3cc(Oc4ccc(C(F)(F)F)cn4)ccc3n2)C1` [Example 370, 1-[(6-{[5-(trifluoromethyl)pyridin-2-yl]oxy}quinolin-2-yl)carbonyl]azetidin-3-one] was tested, and the IC50 was 3.39 µM. For `CNC(=O)C1CN(C(=O)c2ccc3cc(Oc4ccc(C(F)(F)F)cn4)ccc3n2)CCN1` (stereo not drawn) [Example 322, N-methyl-4-[(6-{[5-(trifluoromethyl)pyridin-2-yl]oxy}quinolin-2-yl)carbonyl]piperazine-2-carboxamide], the IC50 was 12 µM. `O=C(NCC(=O)N1CC[C@@H](O)C1)c1ccc2cc(Oc3ccc(C(F)(F)F)cn3)ccc2n1` [Example 559, N-{2-[(3R)-3-hydroxypyrrolidin-1-yl]-2-oxoethyl}-6-{[5-(trifluoromethyl)pyridin-2-yl]oxy}quinoline-2-carboxamide] gave an IC50 of 3.02 µM. Compound `N#Cc1ccc(Oc2ccc3nc(C(=O)NCc4ccccn4)ccc3c2)cc1` [Example 97, 6-(4-cyanophenoxy)-N-(pyridin-2-ylmethyl)quinoline-2-carboxamide] has an IC50 of 0.842 µM.
